# In patent US7199259B2, “Resolution of α-(phenoxy)phenylacetic acid derivatives” (Metabolex, Inc., priority 2003, dated 2007):
# Legend:
# [1] = Solubility in methylene chloride; assay type: physicochemical
# cytochrome P450 2C9 = cytochrome P450 2C9 (Homo sapiens, UniProt P11712); details: cited from earlier work
# [2] = Solubility of racemic CPTA sodium salt in water; assay type: physicochemical; details: sodium hydroxide added to pH about 12.6 versus pH about 9.5
# Protocol: A 100-mL water jacketed resin pot with a magnetic stirrer was connected to a recirculating water bath and charged with 3.48 g of the racemic CPTA sodium salt and 20.0 g of water. The bath temperature was warmed to 35° C., and the slurry was stirred for one hour. The agitator was shut off, and the solid was allowed to settle for 30 min. The pH was 9.4. A 0.3036 g-sample of the supernate was removed and diluted to 25.00 mL with acetonitrile, and the solution was assayed by HPLC analysis. Analysis was repeated at 47° C. and at 19° C. An additional 3.01 g of CPTA sodium salt was added to maintain a slurry at the higher temperature, and 25 g of water was added to give a thinner slurry at the lower temperature. The pH was increased to 12.7 at ambient temperature by the addition of 50% aqueous sodium hydroxide, and the analysis was continued at 13.5, 25, 34, and 42° C.
# [3] = Solubility of CPTA CAF D-Base salts in 2-propanol containing 11% free CPTA; assay type: physicochemical; details: 2-propanol with 11% free CPTA, FIG. 3
# Protocol: “Solvent” was prepared by dissolving 2.40 g of racemic CPTA in 19.42 g of 2-propanol (Fisher HPLC Grade) or 4.90 g of racemic CPTA in 31.4 g of ethanol. The respective concentrations of CPTA in solution were 11.0% and 13.5%. Solubility of the (−)-CPTA·CAF D-Base Salt (i.e., (−)-Salt) or (+)-CPTA.CAF D-Base Salt (i.e., (+)-Salt) was determined by a gravimetric method. At a given temperature, a portion of the supernatant liquid from a saturated solution was remove to a vial of known weight. The solution weight was determined, and the volatile solvent was evaporated with a purge of nitrogen. The solid was further dried to constant weight in a vacuum oven at about 50° C./1 mm Hg. The vial was re-weighed to determine the loss of volatile solvent and weight of solid remaining. From this, the amount of dissolved CPTA from the “solvent” could be calculated. Subtracting the weight of total solid from the CPTA gave the weight of soluble salt in the solvent.
# [4] = Solubility of diastereomeric CPTA-CAF D base salts in 2-propanol; assay type: physicochemical; details: for Wt % in solution: slurry held overnight
# Protocol: Samples of (−)-CPTA CAF D Base and (+)-CPTA CAF D Base (>98% ee) were added to 2-propanol in the amounts shown in Table 8, and mixed using an ultrasonic bath. All samples remained slurries. The slurries were held overnight at the temperature listed, then samples of the supernates were removed and analyzed by quantitative HPLC analysis to determine the CPTA concentration. Additionally, 8.00 g of (−)-CPTA CAF D Base salt required 54.2 g of 2-propanol for solution at 82° C. (14.7 wt %).
# Sequence of cytochrome P450 2C9 (P11712 whole entry): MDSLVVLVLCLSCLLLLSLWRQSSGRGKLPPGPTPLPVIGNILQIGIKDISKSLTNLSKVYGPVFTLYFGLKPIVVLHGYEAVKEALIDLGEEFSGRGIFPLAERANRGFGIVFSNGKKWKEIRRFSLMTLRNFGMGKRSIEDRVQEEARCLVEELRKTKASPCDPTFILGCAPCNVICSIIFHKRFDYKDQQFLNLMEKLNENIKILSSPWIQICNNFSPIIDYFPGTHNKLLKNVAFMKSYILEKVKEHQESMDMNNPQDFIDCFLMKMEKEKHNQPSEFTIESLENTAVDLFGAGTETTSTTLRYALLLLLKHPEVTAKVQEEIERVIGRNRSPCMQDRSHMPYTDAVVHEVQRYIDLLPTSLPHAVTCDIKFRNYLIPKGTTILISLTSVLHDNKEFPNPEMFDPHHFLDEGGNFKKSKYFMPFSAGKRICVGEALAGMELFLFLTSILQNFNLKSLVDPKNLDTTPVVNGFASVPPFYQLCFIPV
smiles,measurement,setting,value
"O=C(O)C(Oc1cccc(C(F)(F)F)c1)c1ccc(Cl)cc1 (racemic) [halofenic acid, (4-chlorophenyl)(3-trifluoromethylphenoxy)acetic acid]",solubility in methylene chloride,[1],less than 3.4%
same,inhibition of cytochrome P450 2C9,cytochrome P450 2C9; racemic acid,inhibits
O=C([O-])C(Oc1cccc(C(F)(F)F)c1)c1ccc(Cl)cc1.[Na+] (racemic) [sodium salt of racemic CPTA],"aqueous solubility, effect of raising pH",[2],decreased the aqueous solubility
"NC(CO)C(O)c1ccc([N+](=O)[O-])cc1.O=C(O)C(Oc1cccc(C(F)(F)F)c1)c1ccc(Cl)cc1 (single isomer, unassigned; (+)) [(+)-CPTA CAF D Base Salt]",solubility in 2-propanol containing 11% free CPTA versus pure 2-propanol,[3],greater solubility
same,Wt % in solution,[4]; 8.5 °C,1.32 Wt %
same,Wt % in solution,[4]; 20.0 °C,1.85 Wt %
same,Wt % in solution,[4]; 45.8 °C,6.03 Wt %
"NC(CO)C(O)c1ccc([N+](=O)[O-])cc1.O=C(O)C(Oc1cccc(C(F)(F)F)c1)c1ccc(Cl)cc1 (single isomer, unassigned; (-)) [(−)-CPTA CAF D Base Salt]",solubility in 2-propanol containing 11% free CPTA versus pure 2-propanol,[3],greater solubility
same,Wt % in solution,[4]; 7.8 °C,0.376 Wt %
same,Wt % in solution,[4]; 19.4 °C,0.688 Wt %
same,Wt % in solution,[4]; 45.3 °C,2.35 Wt %
same,solubility in 2-propanol (amount required for solution),"[4]; 82 °C, 8.00 g salt in 54.2 g 2-propanol",14.7 wt %
same,solubility in 2-propanol relative to the (+)-CPTA form,[4]; FIG. 1 profiles,approximately three times less soluble
"O=C(O)C(Oc1cccc(C(F)(F)F)c1)c1ccc(Cl)cc1 (single isomer, unassigned; (-)) [(−)-enantiomer of halofenic acid]",ability to inhibit cytochrome P450 2C9 compared to the (+)-enantiomer,cytochrome P450 2C9; relative to (+)-enantiomer of halofenic acid,about twenty-fold less active
